Structures are written as SMILES. Where “and” joins values, the source holds several entries; their conditions need not be identical. Equal entries are not always repeated. Toxic doses and inconclusive results are not listed.

The assay relates to L1210 leukemia ip in BDF1 mice, survival T/C. As to the kind of experiment: NCI In Vivo Anticancer Drug Screen. Data for tumor model L1210 Leukemia (intraperitoneal) in B6D2F1 (BDF1) mice. As to conditions: endpoint: mean survival time, higher = longer survival. In a few lines:
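Transplanted-tumor mice were given test agent; controls received vehicle only. Survival readings from the two groups were divided (treated over control).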

The mark [1] stands for this setting: dose: 100.0 mg/kg/injection, schedule: Q01DX009 (ip), vehicle: Klucel (hydroxypropylcellulose) (HPC).
Setting [2] is: dose: 100.0 mg/kg/injection, schedule: Q04DX003 (ip), vehicle: Klucel (hydroxypropylcellulose) (HPC).
Setting [3] is: dose: 200.0 mg/kg/injection, schedule: Q04DX003 (ip), vehicle: Klucel (hydroxypropylcellulose) (HPC).
Setting [4] is: dose: 400.0 mg/kg/injection, schedule: Q04DX003 (ip), vehicle: Klucel (hydroxypropylcellulose) (HPC).
The mark [5] stands for this setting: dose: 200.0 mg/kg/injection, schedule: Q01DX009 (ip), vehicle: Klucel (hydroxypropylcellulose) (HPC).
Where [6] appears, read: dose: 400.0 mg/kg/injection, schedule: Q01DX009 (ip), vehicle: Klucel (hydroxypropylcellulose) (HPC).
[7] abbreviates: dose: 100.0 mg/kg/injection, schedule: Q01DX001 (ip), vehicle: saline with Tween-80.

Turning to `Cc1cccc(NC(=O)CCl)c1`, the T/C was 94 % of control (dose: 25.0 mg/kg/injection, schedule: Q01DX009 (ip), vehicle: Klucel (hydroxypropylcellulose) (HPC)); 87 % of control (dose: 50.0 mg/kg/injection, schedule: Q01DX009 (ip), vehicle: Klucel (hydroxypropylcellulose) (HPC)); 103 % of control and 92 % of control under setting [1]; 103 % of control under setting [2]; 96 % of control and 86 % of control under setting [3]; 99 % of control under setting [4].

As for `COc1ccc(CCN2CSC(=S)N(CCc3ccc(OC)c(OC)c3)C2)cc1OC`, the T/C was 97 % of control under setting [1]; 97 % of control under setting [2]; 100 % of control under setting [5]; 97 % of control under setting [3]; 94 % of control under setting [6]; 95 % of control under setting [4].

Regarding `N/C=C(/NC(=O)c1ccccc1C(N)=O)C(=O)O`, the T/C by setting is: (dose: 75.0 mg/kg/injection, schedule: Q01DX001 (ip), vehicle: saline) 100 % of control; (dose: 150.0 mg/kg/injection, schedule: Q01DX001 (ip), vehicle: saline) 100 % of control; (dose: 300.0 mg/kg/injection, schedule: Q01DX001 (ip), vehicle: saline) 91 % of control.

As to `CC(Oc1cc(Cl)c(Cl)cc1Cl)C(=O)ON(C)C` (configuration not stated), the T/C by setting is: under setting [1], 100 % of control; under setting [5], 100 % of control.

As to `c1ccc(N=Nc2ccc(NC3=NCCO3)cc2)cc1`, the T/C under setting [2] was 95 % of control and the T/C under setting [3] was 98 % of control.

As for `O=C(Nc1ccc([N+](=O)[O-])cc1)c1cc(Cl)c2ccccc2c1O`, the T/C was 106 % of control under setting [1] and 98 % of control under setting [5].

With `CN(C)/C=N/NC(=O)c1ccncc1`, the T/C is, setting by setting: (dose: 100.0 mg/kg/injection, schedule: Q01DX009 (ip), vehicle: saline) 94 % of control; (dose: 100.0 mg/kg/injection, schedule: Q04DX003 (ip), vehicle: saline) 88 % of control; (dose: 200.0 mg/kg/injection, schedule: Q01DX009 (ip), vehicle: saline) 97 % of control; (dose: 200.0 mg/kg/injection, schedule: Q04DX003 (ip), vehicle: saline) 100 % of control; (dose: 400.0 mg/kg/injection, schedule: Q01DX009 (ip), vehicle: saline) 108 % of control; (dose: 400.0 mg/kg/injection, schedule: Q04DX003 (ip), vehicle: saline) 96 % of control.

`CC(=O)OC1C(CF)OC(n2cnc3c(Cl)ncnc32)C1OC(C)=O` (configuration not stated): the T/C (dose: 100.0 mg/kg/injection, schedule: Q01DX005 (ip), vehicle: saline) is 98 % of control and the T/C (dose: 200.0 mg/kg/injection, schedule: Q01DX005 (ip), vehicle: saline) is 97 % of control.

Regarding `COc1cccc2c1C(=O)c1c(O)c3c(c(O)c1C2=O)CC(O)(C(C)=O)CC3OC1CC2NC(=O)OC2C(C)O1` (configuration not stated), the T/C under setting [7] was 114 % of control.

As for `O=C(Nc1cccc(C(F)(F)F)c1)OCCOc1ccc(Br)cc1`, the T/C was 98 % of control under setting [1], 96 % of control under setting [5] and 92 % of control under setting [6].

Consider `Cc1cccc(C)c1NC(=O)c1cccc(C(=O)Nc2c(C)cccc2C)c1`, for which the T/C is 98 % of control under setting [1]; 96 % of control under setting [2]; 111 % of control under setting [5]; 87 % of control under setting [3]; 105 % of control under setting [6]; 86 % of control under setting [4].

Turning to `O=C(CCc1ccccc1)NC(=S)Nc1cccc([N+](=O)[O-])c1`, the T/C (dose: 12.5 mg/kg/injection, schedule: Q01DX009 (ip), vehicle: saline with Tween-80) was 96 % of control and 98 % of control; the T/C (dose: 50.0 mg/kg/injection, schedule: Q04DX003 (ip), vehicle: saline with Tween-80) is 96 % of control; the T/C under setting [7] was 93 % of control; the T/C (dose: 100.0 mg/kg/injection, schedule: Q04DX002 (ip), vehicle: alcohol) is 104 % of control; the T/C (dose: 100.0 mg/kg/injection, schedule: Q04DX003 (ip), vehicle: saline with Tween-80) is 91 % of control; the T/C (dose: 200.0 mg/kg/injection, schedule: Q01DX001 (ip), vehicle: saline with Tween-80) is 104 % of control. In addition, the T/C is, setting by setting: (dose: 200.0 mg/kg/injection, schedule: Q04DX002 (ip), vehicle: alcohol) 93 % of control and 100 % of control; (dose: 200.0 mg/kg/injection, schedule: Q04DX003 (ip), vehicle: saline with Tween-80) 86 % of control; (dose: 400.0 mg/kg/injection, schedule: Q04DX002 (ip), vehicle: alcohol) 96 % of control.

For `COC1(OC)CC2C(=O)CCCC21OC(C)=O` (configuration not stated), the T/C runs as follows: (dose: 75.0 mg/kg/injection, schedule: Q04DX002 (ip), vehicle: saline) 93 % of control; (dose: 150.0 mg/kg/injection, schedule: Q04DX002 (ip), vehicle: saline) 103 % of control; (dose: 300.0 mg/kg/injection, schedule: Q04DX002 (ip), vehicle: saline) 107 % of control.

In the case of `CC(O)c1cccc(NC(=O)NC(C)(C)C)c1` (configuration not stated), the T/C reads like this: under setting [1], 102 % of control; under setting [5], 107 % of control; under setting [6], 113 % of control.

Take `O=C(COCC(=O)N/N=C/c1cccc([N+](=O)[O-])c1)N/N=C/c1cccc([N+](=O)[O-])c1`: the T/C is, setting by setting: under setting [1], 92 % of control; under setting [5], 95 % of control; under setting [6], 106 % of control.

`CC(=O)OCC1OC(N2C(=O)/C(=C/c3ccc(Br)s3)SC2=S)C(OC(C)=O)C(OC(C)=O)C1OC(C)=O` (configuration not stated): the T/C was 94 % of control (dose: 25.0 mg/kg/injection, schedule: Q01DX005 (ip), vehicle: other); 94 % of control (dose: 50.0 mg/kg/injection, schedule: Q01DX005 (ip), vehicle: other); 94 % of control (dose: 100.0 mg/kg/injection, schedule: Q01DX005 (ip), vehicle: other).

Consider `CCOC(=O)Cc1ccc(N)cc1`, for which the T/C runs as follows: (dose: 100.0 mg/kg/injection, schedule: Q01DX001 (ip), vehicle: Klucel (hydroxypropylcellulose) (HPC)) 104 % of control; (dose: 200.0 mg/kg/injection, schedule: Q01DX001 (ip), vehicle: Klucel (hydroxypropylcellulose) (HPC)) 101 % of control.

With `C=C1N(c2ccc(OC)c(OC)c2)C(=O)OC12CCCCC2`, the T/C was 93 % of control (dose: 25.0 mg/kg/injection, schedule: Q04DX003 (ip), vehicle: Klucel (hydroxypropylcellulose) (HPC)); 93 % of control (dose: 50.0 mg/kg/injection, schedule: Q04DX003 (ip), vehicle: Klucel (hydroxypropylcellulose) (HPC)); 102 % of control under setting [2]; 96 % of control under setting [3].

As to `CCOP(=O)(N1CC1(C)C)N1CC1(C)C` (configuration not stated), the T/C runs as follows: (dose: 1.0 mg/kg/injection, schedule: Q01DX009 (ip), vehicle: saline) 100 % of control; (dose: 2.0 mg/kg/injection, schedule: Q01DX009 (ip), vehicle: saline) 105 % of control; (dose: 4.0 mg/kg/injection, schedule: Q01DX009 (ip), vehicle: saline) 110 % of control; (dose: 20.0 mg/kg/injection, schedule: Q01DX009 (ip), vehicle: saline) 161 % of control; (dose: 25.0 mg/kg/injection, schedule: Q01DX001 (ip), vehicle: other) 209 % of control; (dose: 30.0 mg/kg/injection, schedule: Q01DX009 (ip), vehicle: saline) 209 % of control. Also, the T/C is, setting by setting: (dose: 50.0 mg/kg/injection, schedule: Q01DX001 (ip), vehicle: other) 201 % of control; (dose: 52.0 mg/kg/injection, schedule: Q01DX009 (ip), vehicle: Klucel (hydroxypropylcellulose) (HPC)) 177 % of control; (dose: 53.0 mg/kg/injection, schedule: Q01DX001 (ip), vehicle: saline) 152 % of control; (dose: 80.0 mg/kg/injection, schedule: Q01DX001 (ip), vehicle: other) 151 % of control; (dose: 80.0 mg/kg/injection, schedule: Q01DX001 (ip), vehicle: saline) 152 % of control; (dose: 80.0 mg/kg/injection, schedule: Q01DX009 (ip), vehicle: saline) 91 % of control. Also, the T/C runs as follows: (dose: 120.0 mg/kg/injection, schedule: Q01DX001 (ip), vehicle: other) 162 % of control; (dose: 120.0 mg/kg/injection, schedule: Q01DX001 (ip), vehicle: saline) 273 % of control; (dose: 177.0 mg/kg/injection, schedule: Q01DX001 (ip), vehicle: saline) 174 % of control; (dose: 180.0 mg/kg/injection, schedule: Q01DX001 (ip), vehicle: other) 224 % of control; (dose: 200.0 mg/kg/injection, schedule: Q01DX001 (ip), vehicle: other) 223 % of control; (dose: 400.0 mg/kg/injection, schedule: Q01DX001 (ip), vehicle: other) 226 % of control.

Take `c1cc(B2OCCNCCO2)ccc1B1OCCNCCO1`: the T/C is 103 % of control under setting [2], 98 % of control under setting [3] and 104 % of control under setting [4].
